US20260232767A1, “INTERLEUKIN-23 RECEPTOR ANTAGONIST PEPTIDES FOR USE IN THE TREATMENT OF PSORIASIS” (Janssen Pharmaceutica NV, priority 2023, published 2026)

System: subjects with moderate-to-severe plaque psoriasis
Assay: PASI response, Example 2 long-term extension to Week 52
Type: in vivo, human
Details: for Change from Baseline in PASI Total Score, LSMean: MMRM model; for Subjects achieving 100% Improvement at Week 52 (PASI) / Subjects achieving ≥75% Improvement at Week 52 (PASI 75 Response) / Subjects achieving ≥90% Improvement at Week 52 (PASI): non-responder imputation
Description: Described below is a multicenter, long-term extension (LTE), double-blind, dose-ranging, parallel group interventional study in participants from Example 1 to evaluate the long-term efficacy and safety of the hydrochloride salt of the compound of Formula (I) for the treatment of moderate-to-severe plaque psoriasis. Patients from Example 1 continued to receive the same dose of the compound of Formula (I) for an additional 36-week treatment period with a 4-week safety follow up period after the last administration of the compound of Formula (I). Patients randomized to placebo in Example 1 received the compound of Formula (I) at a dose of 100 mg QD starting at Week 16 of Example 1 (FIG. 21).
The primary efficacy endpoint is the proportion of participants achieving a PASI 75 response at Week 52, defined as at least a […] reduction from baseline PASI of Example 1. For primary analysis, composite strategy (non-responder imputation) was applied to address intercurrent event #1 (Discontinuation of study intervention due to lack of efficacy or due to an AE of worsening of psoriasis) and […] (initiation of a protocol-prohibited medication or therapy that could improve psoriasis); treatment policy strategy (observed data) was applied to intercurrent event #3 (Discontinuation of study intervention due to other reasons). Participants with missing data after application of ICEs are considered as non-responders.
Since there was no control arm (after week 16), in this primary analysis, only the proportion of participants who achieved a PASI75 response and its […] confidence interval at Week 52 were summarized for each intervention group.

For `CC(=O)NCCCC[C@@H]1NC(=O)[C@H](Cc2c[nH]c3c(C)cccc23)NC(=O)[C@H]([C@@H](C)O)NC(=O)[C@H](CC(N)=O)NC(=O)[C@@H](NC(C)=O)C(C)(C)SSC(C)(C)[C@@H](C(=O)N[C@@H](Cc2ccc(OCCN)cc2)C(=O)N[C@@H](Cc2ccc3ccccc3c2)C(=O)NC2(C(=O)N[C@@H](CCC(=O)O)C(=O)N[C@@H](CC(N)=O)C(=O)N[C@@H](Cc3cccnc3)C(=O)N(C)CC(N)=O)CCOCC2)NC1=O` [IL-23 receptor antagonist peptide, Ac-[Pen]*-N-T-[W(7-Me)]-[Lys(Ac)]-[Pen]*-Phe[4-(2-aminoethoxy)]-[2-Nal]-[THP]-E-N-[3-Pal]-Sarc-NH2 (*[Pen]-[Pen]* formdisulfidebond)], the “Change from Baseline in PASI Total Score, Mean” value (25 mg BID, Week 1) was −1.20, the “Change from Baseline in PASI Total Score, Median” value (from here on “Change from Baseline … Median”) (25 mg BID, Week 1) was −0.80 and the “Change from Baseline in PASI Total Score, LSMean” value (“Change from Baseline … LSMean” below) (25 mg BID, Week 1) was −1.4. For the same compound, the “Change from Baseline in PASI Total Score, Mean” value (25 mg BID, Week 2) was −3.65, the “Change from Baseline … Median” value (25 mg BID, Week 2) was −3.20 and the “Change from Baseline … LSMean” value (25 mg BID, Week 2) was −3.8. For the same compound, the “Change from Baseline in PASI Total Score, Mean” value (25 mg BID, Week 4) was −6.26, the “Change from Baseline … Median” value (25 mg BID, Week 4) was −6.30 and the “Change from Baseline … LSMean” value (25 mg BID, Week 4) was −6.7. The “Change from Baseline in PASI Total Score, Mean” value (25 mg BID, Week 8) was −9.72, the “Change from Baseline … Median” value (25 mg BID, Week 8) was −9.90 and the “Change from Baseline … LSMean” value (25 mg BID, Week 8) was −10.2. The “Change from Baseline in PASI Total Score, Mean” value (25 mg BID, Week 12) was −11.46, the “Change from Baseline … Median” value (25 mg BID, Week 12) was −12.30 and the “Change from Baseline … LSMean” value (25 mg BID, Week 12) was −11.9. For the same compound, the “Change from Baseline in PASI Total Score, Mean” value (25 mg BID, Week 16) was −12.73, the “Change from Baseline … Median” value (25 mg BID, Week 16) was −12.70 and the “Change from Baseline … LSMean” value (25 mg BID, Week 16) was −13.0. The “Change from Baseline in PASI Total Score, Mean” value (25 mg BID, Week 20) was −13.50, the “Change from Baseline … Median” value (25 mg BID, Week 20) was −13.60 and the “Change from Baseline … LSMean” value (25 mg BID, Week 20) was −13.7. The “Change from Baseline in PASI Total Score, Mean” value (25 mg BID, Week 24) was −13.64, the “Change from Baseline … Median” value (25 mg BID, Week 24) was −13.55 and the “Change from Baseline … LSMean” value (25 mg BID, Week 24) was −13.5. For the same compound, the “Change from Baseline in PASI Total Score, Mean” value (25 mg BID, Week 28) was −14.33, the “Change from Baseline … Median” value (25 mg BID, Week 28) was −14.40 and the “Change from Baseline … LSMean” value (25 mg BID, Week 28) was −14.5. The “Change from Baseline in PASI Total Score, Mean” value (25 mg BID, Week 32) was −14.36, the “Change from Baseline … Median” value (25 mg BID, Week 32) was −14.30 and the “Change from Baseline … LSMean” value (25 mg BID, Week 32) was −14.6. The “Change from Baseline in PASI Total Score, Mean” value (25 mg BID, Week 40) was −13.58, the “Change from Baseline … Median” value (25 mg BID, Week 40) was −14.10 and the “Change from Baseline … LSMean” value (25 mg BID, Week 40) was −13.9. For the same compound, the “Change from Baseline in PASI Total Score, Mean” value (25 mg BID, Week 52) was −13.24, the “Change from Baseline … Median” value (25 mg BID, Week 52) was −13.75 and the “Subjects achieving PASI 75” value (25 mg BID, Week 52) was 24 (28.5%). The “Change from Baseline … LSMean” value (25 mg BID, Week 52) was −13.6, the “Subjects achieving 100% Improvement at Week 52 (PASI)” value (25 mg BID, Week 52) was “(17.1%)” and the “Subjects achieving ≥75% Improvement at Week 52 (PASI 75 Response)” value (25 mg BID, Week 52) was 24 (58.5%). The “Subjects achieving ≥90% Improvement at Week 52 (PASI)” value (25 mg BID, Week 52) was “(36.6%)”, the “Change from Baseline in PASI Total Score, Mean” value (25 mg QD, Week 1) was −2.25 and the “Change from Baseline … Median” value (25 mg QD, Week 1) was −0.80. For the same compound, the “Change from Baseline … LSMean” value (25 mg QD, Week 1) was −2.4, the “Change from Baseline in PASI Total Score, Mean” value (25 mg QD, Week 2) was −4.50 and the “Change from Baseline … Median” value (25 mg QD, Week 2) was −4.00. For the same compound, the “Change from Baseline … LSMean” value (25 mg QD, Week 2) was −4.5, the “Change from Baseline in PASI Total Score, Mean” value (25 mg QD, Week 4) was −6.50 and the “Change from Baseline … Median” value (25 mg QD, Week 4) was −5.60. For the same compound, the “Change from Baseline … LSMean” value (25 mg QD, Week 4) was −6.7, the “Change from Baseline in PASI Total Score, Mean” value (25 mg QD, Week 8) was −9.39 and the “Change from Baseline … Median” value (25 mg QD, Week 8) was −7.70. The “Change from Baseline … LSMean” value (25 mg QD, Week 8) was −9.5, the “Change from Baseline in PASI Total Score, Mean” value (25 mg QD, Week 12) was −10.71 and the “Change from Baseline … Median” value (25 mg QD, Week 12) was −9.20. The “Change from Baseline … LSMean” value (25 mg QD, Week 12) was −10.8, the “Change from Baseline in PASI Total Score, Mean” value (25 mg QD, Week 16) was −12.76 and the “Change from Baseline … Median” value (25 mg QD, Week 16) was −12.20. For the same compound, the “Change from Baseline … LSMean” value (25 mg QD, Week 16) was −12.0, the “Change from Baseline in PASI Total Score, Mean” value (25 mg QD, Week 20) was −14.01 and the “Change from Baseline … Median” value (25 mg QD, Week 20) was −13.70. For the same compound, the “Change from Baseline … LSMean” value (25 mg QD, Week 20) was −13.2, the “Change from Baseline in PASI Total Score, Mean” value (25 mg QD, Week 24) was −13.56 and the “Change from Baseline … Median” value (25 mg QD, Week 24) was −14.30. The “Change from Baseline … LSMean” value (25 mg QD, Week 24) was −12.8, the “Change from Baseline in PASI Total Score, Mean” value (25 mg QD, Week 28) was −13.35 and the “Change from Baseline … Median” value (25 mg QD, Week 28) was −14.60. The “Change from Baseline … LSMean” value (25 mg QD, Week 28) was −13.3, the “Change from Baseline in PASI Total Score, Mean” value (25 mg QD, Week 32) was −14.06 and the “Change from Baseline … Median” value (25 mg QD, Week 32) was −15.50. For the same compound, the “Change from Baseline … LSMean” value (25 mg QD, Week 32) was −13.6, the “Change from Baseline in PASI Total Score, Mean” value (25 mg QD, Week 40) was −13.70 and the “Change from Baseline … Median” value (25 mg QD, Week 40) was −15.25. The “Change from Baseline … LSMean” value (25 mg QD, Week 40) was −13.1, the “Change from Baseline in PASI Total Score, Mean” value (25 mg QD, Week 52) was −13.55 and the “Change from Baseline … Median” value (25 mg QD, Week 52) was −14.55. For the same compound, the “Subjects achieving PASI 75” value (25 mg QD, Week 52) was 21 (48.8%), the “Change from Baseline … LSMean” value (25 mg QD, Week 52) was −12.9 and the “Subjects achieving 100% Improvement at Week 52 (PASI)” value (25 mg QD, Week 52) was “(14.0%)”. The “Subjects achieving ≥75% Improvement at Week 52 (PASI 75 Response)” value (25 mg QD, Week 52) was 21 (48.8%), the “Subjects achieving ≥90% Improvement at Week 52 (PASI)” value (25 mg QD, Week 52) was “(27.9%)” and the “Change from Baseline in PASI Total Score, Mean” value (50 mg QD, Week 1) was −3.10. For the same compound, the “Change from Baseline … Median” value (50 mg QD, Week 1) was −1.80, the “Change from Baseline … LSMean” value (50 mg QD, Week 1) was −3.1 and the “Change from Baseline in PASI Total Score, Mean” value (50 mg QD, Week 2) was −5.74. The “Change from Baseline … Median” value (50 mg QD, Week 2) was −4.30, the “Change from Baseline … LSMean” value (50 mg QD, Week 2) was −5.7 and the “Change from Baseline in PASI Total Score, Mean” value (50 mg QD, Week 4) was −8.25. The “Change from Baseline … Median” value (50 mg QD, Week 4) was −7.85, the “Change from Baseline … LSMean” value (50 mg QD, Week 4) was −8.2 and the “Change from Baseline in PASI Total Score, Mean” value (50 mg QD, Week 8) was −11.41. For the same compound, the “Change from Baseline … Median” value (50 mg QD, Week 8) was −11.85, the “Change from Baseline … LSMean” value (50 mg QD, Week 8) was −11.3 and the “Change from Baseline in PASI Total Score, Mean” value (50 mg QD, Week 12) was −12.96. For the same compound, the “Change from Baseline … Median” value (50 mg QD, Week 12) was −14.25, the “Change from Baseline … LSMean” value (50 mg QD, Week 12) was −12.8 and the “Change from Baseline in PASI Total Score, Mean” value (50 mg QD, Week 16) was −14.56.
